Target: T1, CRD DC-SIGN (carbohydrate recognition domain of DC-SIGN, 15N labelled) (Homo sapiens, UniProt Q9NNX6)
T1 sequence (Q9NNX6 250-404 limits assumed): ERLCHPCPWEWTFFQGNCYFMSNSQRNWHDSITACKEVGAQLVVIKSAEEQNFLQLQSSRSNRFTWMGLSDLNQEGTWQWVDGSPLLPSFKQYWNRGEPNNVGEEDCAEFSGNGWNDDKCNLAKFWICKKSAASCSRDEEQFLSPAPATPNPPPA
Test: 1H, […]-HSQC NMR titration
Type: binding

| Kd [µM] | SMILES |
| --- | --- |
| ~600 | NCCCO[C@H]1O[C@H](CO)[C@@H](O)[C@H](O)[C@@H]1O[C@H]1O[C@H](CO)[C@@H](O)[C@H](O)[C@@H]1O[C@H]1O[C@H](CO)[C@@H](O)[C@H](O[C@H]2O[C@H](CO)[C@@H](O)[C@H](O)[C@@H]2O[C@H]2O[C@H](CO)[C@@H](O)[C@H](O)[C@@H]2O)[C@@H]1O [compound 29, pentasaccharide 29] |
| ~1100 | NCCCO[C@H]1O[C@H](CO)[C@@H](O)[C@H](O)[C@@H]1O[C@H]1O[C@H](CO)[C@@H](O)[C@H](O)[C@@H]1O[C@H]1O[C@H](CO)[C@@H](O)[C@H](O)[C@@H]1O[C@H]1O[C@H](CO)[C@@H](O)[C@H](O[C@H]2O[C@H](CO)[C@@H](O)[C@H](O)[C@@H]2O[C@H]2O[C@H](CO)[C@@H](O)[C@H](O)[C@@H]2O)[C@@H]1O [compound 30, hexasaccharide 30] |

Reference: publication PMC10382935 (The Cell Surface, 2023)
